Data taken from PMC11019538, “Biophysics-Guided Lead Discovery of HBV Capsid Assembly Modifiers” (ACS Infectious Diseases, 2024).

Test system: HBV DNA replication in HepAD38 cells
Experiment: HBV DNA replication inhibition assay in HepAD38 cells (7 days, PCR of supernatant DNA)
Type: cell-based, hepatitis B virus
Conditions: HepAD38 cells, 10 µM, first round of selected compounds
Experimental: HepAD38 cells were seeded at 50,000 cells/well in collagen-coated 96-well plates. […] The experiment lasted 7 days. On day 7, total DNA was purified from the supernatant using a commercially available kit (DNeasy 96 Blood & Tissue kit, Qiagen). The HBV DNA was amplified in a polymerase chain reaction assay using LightCycler 480 II (Roche), as previously described.[63] All samples were tested in duplicate.

Compound	HBV DNA inhibition (%) at 10 µM [%]
Cc1ccc(C(N)c2ccncc2)cc1 (stereo not drawn) [GT-20]	< 1

Same assay, conditions: Hepatitis B virus, HePAD38; 200 µM, additional testing, Table S4; read-out: Anti-HBV activity in HepAD38 cells, % Inh. at 200 µM ± SD

Compound	inhibition at 200 µM [%]
Cc1ccc2[nH]c(CCNc3nccc(-c4ccccn4)n3)nc2c1C [GT-47]	< 1
O=C(NCc1ccc(-c2cccnc2)nc1)c1ccc2nccnc2c1 [GT-46]	25.6 ± 2.5

Same assay, conditions: Hepatitis B virus, HePAD38; additional testing, Table S4; read-out: Anti-HBV activity in HepAD38 cells, EC50

Compound	EC50 [µM]
Cc1ccc2[nH]c(CCNc3nccc(-c4ccccn4)n3)nc2c1C [GT-47]	> 200
O=C(NCc1ccc(-c2cccnc2)nc1)c1ccc2nccnc2c1 [GT-46]	> 200

Same assay, conditions: Hepatitis B virus; HepAD38 cells, 10 μM, trial 1; read-out: % HBV DNA Inh. at 10 μM, trial 1

Compound	inhibition at 10 µM [%]
Cc1ccc2[nH]c(CCNc3nccc(-c4ccccn4)n3)nc2c1C [GT-47]	49
O=C(NCc1ccc(-c2cccnc2)nc1)c1ccc2nccnc2c1 [GT-46]	49

Same assay, conditions: Hepatitis B virus; HepAD38 cells, 10 μM, trial 2; read-out: % HBV DNA Inh. at 10 μM, trial 2

Compound	inhibition at 10 µM [%]
Cc1ccc2[nH]c(CCNc3nccc(-c4ccccn4)n3)nc2c1C [GT-47]	49
O=C(NCc1ccc(-c2cccnc2)nc1)c1ccc2nccnc2c1 [GT-46]	49

Same assay, conditions: Hepatitis B virus; HepAD38 cells, 10 µM, trial 3; read-out: % HBV DNA Inh. at 10 µM, trial 3

Compound	inhibition at 10 µM [%]
Cc1ccc2[nH]c(CCNc3nccc(-c4ccccn4)n3)nc2c1C [GT-47]	14
O=C(NCc1ccc(-c2cccnc2)nc1)c1ccc2nccnc2c1 [GT-46]	2

Same assay, conditions: Hepatitis B virus; HepAD38 cells, 10 µM, trial 4; read-out: % HBV DNA Inh. at 10 µM, trial 4

Compound	inhibition at 10 µM [%]
Cc1ccc2[nH]c(CCNc3nccc(-c4ccccn4)n3)nc2c1C [GT-47]	< 1
O=C(NCc1ccc(-c2cccnc2)nc1)c1ccc2nccnc2c1 [GT-46]	39

Same assay, conditions: Hepatitis B virus; HepAD38 cells, 10 μM; read-out: % inhibition in at least one of the trials

Compound	inhibition at 10 µM [%]
Cc1ccc2[nH]c(CCNc3nccc(-c4ccccn4)n3)nc2c1C [GT-47]	> 50
O=C(NCc1ccc(-c2cccnc2)nc1)c1ccc2nccnc2c1 [GT-46]	> 50

Same assay, conditions: Hepatitis B virus; HepAD38 cells, trial 1; read-out: EC50, trial 1

Compound	EC50 [µM]
Cc1ccc2[nH]c(CCNc3nccc(-c4ccccn4)n3)nc2c1C [GT-47]	≥ 10
O=C(NCc1ccc(-c2cccnc2)nc1)c1ccc2nccnc2c1 [GT-46]	≥ 10

Same assay, conditions: Hepatitis B virus; HepAD38 cells, trial 2; read-out: EC50, trial 2

Compound	EC50 [µM]
Cc1ccc2[nH]c(CCNc3nccc(-c4ccccn4)n3)nc2c1C [GT-47]	≥ 10
O=C(NCc1ccc(-c2cccnc2)nc1)c1ccc2nccnc2c1 [GT-46]	≥ 10

Same assay, conditions: Hepatitis B virus; HepAD38 cells, trial 3; read-out: EC50, trial 3

Compound	EC50 [µM]
Cc1ccc2[nH]c(CCNc3nccc(-c4ccccn4)n3)nc2c1C [GT-47]	> 10
O=C(NCc1ccc(-c2cccnc2)nc1)c1ccc2nccnc2c1 [GT-46]	> 10

Same assay, conditions: Hepatitis B virus; HepAD38 cells, trial 4; read-out: EC50, trial 4

Compound	EC50 [µM]
Cc1ccc2[nH]c(CCNc3nccc(-c4ccccn4)n3)nc2c1C [GT-47]	> 100
O=C(NCc1ccc(-c2cccnc2)nc1)c1ccc2nccnc2c1 [GT-46]	> 100

Test system: not listed separately
Experiment: MTT cytotoxicity, Vero cells
Type: cell-based, African green monkey
Conditions: African green monkey, Vero cells (kidney)
Experimental: (§1) Human peripheral blood mononuclear (PBM), T lymphoblast CEM-CCRF (herein referred to as CEM cells), African green monkey kidney (Vero), or human liver carcinoma (HepG2) cells were tested via MTT assay using the CellTiter 96 Non-Radioactive Cell Proliferation (Promega) kit as previously described.[63]

Compound	CC50 [µM]
Cc1ccc2[nH]c(CCNc3nccc(-c4ccccn4)n3)nc2c1C [GT-47]	> 100
O=C(NCc1ccc(-c2cccnc2)nc1)c1ccc2nccnc2c1 [GT-46]	53

Test system: African green monkey kidney (Vero) cells
Experiment: MTT cytotoxicity, Vero cells
Type: cell-based
Conditions: Vero cells
Experimental: as §1

Compound	CC50 [µM]
Cc1ccc(C(N)c2ccncc2)cc1 (stereo not drawn) [GT-20]	> 100

Same assay, conditions: Vero cells, 100 µM

Compound	% cytotoxicity (MTT) at 100 µM [%]
Cc1ccc2[nH]c(CCNc3nccc(-c4ccccn4)n3)nc2c1C [GT-47]	31

Test system: not listed separately
Experiment: in vitro
Conditions: not given

Compound	IC50 [µM]
Cc1ccc2[nH]c(CCNc3nccc(-c4ccccn4)n3)nc2c1C [GT-47]	> 200
O=C(NCc1ccc(-c2cccnc2)nc1)c1ccc2nccnc2c1 [GT-46]	> 200

Test system: T lymphoblast CEM-CCRF (CEM) cells
Experiment: MTT cytotoxicity, CEM cells
Type: cell-based, human
Conditions: not given
Experimental: as §1

Compound	CC50 [µM]
Cc1ccc(C(N)c2ccncc2)cc1 (stereo not drawn) [GT-20]	> 100

Same assay, conditions: 100 µM

Compound	% cytotoxicity at 100 µM (MTT), CEM cells [%]
Cc1ccc2[nH]c(CCNc3nccc(-c4ccccn4)n3)nc2c1C [GT-47]	48

Test system: not listed separately
Experiment: MTT cytotoxicity, CEM cells
Type: cell-based, human
Conditions: human, T lymphoblast CEM-CCRF (CEM) cells
Experimental: as §1

Compound	CC50 [µM]
Cc1ccc2[nH]c(CCNc3nccc(-c4ccccn4)n3)nc2c1C [GT-47]	> 100
O=C(NCc1ccc(-c2cccnc2)nc1)c1ccc2nccnc2c1 [GT-46]	38

Biological target: T1, Cp149 capsid assembly (Hepatitis B virus genotype D subtype adw, UniProt P03147)
T1 construct: The N-terminal domain of Cp (Cp149) is sufficient for forming regular capsids; made in house; host or cells: E. coli BL21(DE3)
T1 sequence (P03147 1-149): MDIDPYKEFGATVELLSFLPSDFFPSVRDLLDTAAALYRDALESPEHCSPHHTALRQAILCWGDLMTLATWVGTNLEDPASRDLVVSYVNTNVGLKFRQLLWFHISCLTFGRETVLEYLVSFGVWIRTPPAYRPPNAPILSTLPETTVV
Experiment: Transmission electron microscopy of assembled Cp149 products
Type: biochemical
Conditions: 20 μM Cp149, 40 μM compound
Experimental: The assembled samples of Cp149 were prepared as described in the Size Exclusion Chromatography section. Eight μL of each sample was added onto the 300 mesh Lacey Formvar carbon–copper grids (Ted Pella, Inc.) and allowed to sit for 1.5 min. The grid was then rinsed in 500 mL of deionized water for 10 s twice to rinse off the extra buffer on the grid. After drying, the sample was stained with 8 μL of 2% uranyl acetate for 1 min. After removal and drying of the uranyl acetate solution, the sample was imaged with a Hitachi HT7700 electron microscope at an accelerating voltage of 120 kV, at the IMat Materials Characterization Facility of Georgia Institute of Technology. The images underwent processing using ImageJ software. Initially, to minimize noise, a Gaussian blur filter was applied. These images were then converted into an 8 bit binary format for edge detection. ImageJ identified particles ranging in size from 800 to 2000 pixels. An example of a processed image can be seen in Figure S14. The circularity of each particle was calculated using the formula circularity = 4π × area × perimeter^–2. […] A total of four images, each containing a minimum of 100 capsids, were analyzed to determine the proportion of the abnormal capsids. The entire experiment was duplicated, and the outcomes from both sets were then averaged.

Compound	effect on capsid morphology (TEM)
Cc1ccc2[nH]c(CCNc3nccc(-c4ccccn4)n3)nc2c1C [GT-47]	induced misdirected products

Same assay, conditions: 20 μM Cp149, 40 μM compound, 500 mM NaCl

Compound	% abnormal capsids, Trial 1 [%]	% abnormal capsids, Trial 2 [%]
Cc1ccc2[nH]c(CCNc3nccc(-c4ccccn4)n3)nc2c1C [GT-47]	28	23
O=C(NCc1ccc(-c2cccnc2)nc1)c1ccc2nccnc2c1 [GT-46]	–	78

Same assay, conditions: average of two trials

Compound	% abnormal capsids, Average [%]
Cc1ccc2[nH]c(CCNc3nccc(-c4ccccn4)n3)nc2c1C [GT-47]	26
O=C(NCc1ccc(-c2cccnc2)nc1)c1ccc2nccnc2c1 [GT-46]	74

Test system: not listed separately
Experiment: MTS cytotoxicity (Table S4)
Conditions: not given

Compound	MTS cytotoxicity, % Inh. at 200 µM [%]
Cc1ccc2[nH]c(CCNc3nccc(-c4ccccn4)n3)nc2c1C [GT-47]	< 1
O=C(NCc1ccc(-c2cccnc2)nc1)c1ccc2nccnc2c1 [GT-46]	< 1

Biological target: T2, Cp149 (Hepatitis B virus genotype D subtype adw, UniProt P03147)
T2 construct: The N-terminal domain of Cp (Cp149) is sufficient for forming regular capsids; made in house; host or cells: E. coli BL21(DE3)
T2 sequence (P03147 1-149): as above
Experiment: Tryptophan fluorescence titration
Type: binding
Conditions: 20 μM Cp149, compound up to 100 μM
Experimental: Each of the compounds was titrated into 100 μL of the protein solution to final concentrations of 0, 5, 10, 20, 50, and 100 μM in a clear bottom 96-well plate. […] Tryptophan fluorescence levels were measured by exciting the samples at 285 nm and measuring the emission at 340 nm with the Varioskan Flash (Thermo Fisher) plate reader. […] Fluorescence quenching was calculated by taking the difference of net fluorescence levels of each concentration and of the 0 μM sample. All the samples were run in triplicate, and the results were averaged. The dissociation constants (KD) were fitted by the one-site-specific binding model of GraphPad.[45]

Compound	tryptophan fluorescence quenching
Cc1ccc2[nH]c(CCNc3nccc(-c4ccccn4)n3)nc2c1C [GT-47]	reproducible but modest fluorescence quenching
O=C(NCc1ccc(-c2cccnc2)nc1)c1ccc2nccnc2c1 [GT-46]	moderate fluorescence quenching

Same assay, conditions: KD, one site specific binding model, Table S7

Compound	Kd [µM]
O=C(NCc1ccc(-c2cccnc2)nc1)c1ccc2nccnc2c1 [GT-46]	263

Same assay, conditions: dissociation constant (KD), estimated, 20 μM Cp149, single-site fit

Compound	Kd [µM]
O=C(NCc1ccc(-c2cccnc2)nc1)c1ccc2nccnc2c1 [GT-46]	263

Test system: not listed separately
Experiment: MTT cytotoxicity, HepG2 cells
Type: cell-based, human
Conditions: human, HepG2 cells (liver carcinoma)
Experimental: as §1

Compound	CC50 [µM]
Cc1ccc2[nH]c(CCNc3nccc(-c4ccccn4)n3)nc2c1C [GT-47]	18
O=C(NCc1ccc(-c2cccnc2)nc1)c1ccc2nccnc2c1 [GT-46]	82

Test system: human liver carcinoma (HepG2) cells
Experiment: MTT cytotoxicity, HepG2 cells
Type: cell-based
Conditions: HepG2 cells
Experimental: as §1

Compound	CC50 [µM]
Cc1ccc(C(N)c2ccncc2)cc1 (stereo not drawn) [GT-20]	> 100

Test system: PBM, CEM, Vero and HepG2 cells
Experiment: MTT cytotoxicity, four cell lines taken together
Type: cell-based
Conditions: not given
Experimental: as §1

Compound	toxicity in at least one cell line tested [µM]
Cc1ccc2[nH]c(CCNc3nccc(-c4ccccn4)n3)nc2c1C [GT-47]	16 to 18

Test system: not listed separately
Experiment: MTT cytotoxicity, PBM cells
Type: cell-based, human
Conditions: human, peripheral blood mononuclear (PBM) cells
Experimental: as §1

Compound	CC50 [µM]
Cc1ccc2[nH]c(CCNc3nccc(-c4ccccn4)n3)nc2c1C [GT-47]	> 100
O=C(NCc1ccc(-c2cccnc2)nc1)c1ccc2nccnc2c1 [GT-46]	> 100

Test system: human peripheral blood mononuclear (PBM) cells
Experiment: MTT cytotoxicity, PBM cells
Type: cell-based
Conditions: not given
Experimental: as §1

Compound	CC50 [µM]
Cc1ccc(C(N)c2ccncc2)cc1 (stereo not drawn) [GT-20]	> 100

Same assay, conditions: 100 µM

Compound	percent cytotoxicity (cell growth inhibition) at 100 µM [%]
Cc1ccc2[nH]c(CCNc3nccc(-c4ccccn4)n3)nc2c1C [GT-47]	16
O=C(NCc1ccc(-c2cccnc2)nc1)c1ccc2nccnc2c1 [GT-46]	20
